How the values were obtained:
[1] = system: neurodegenerative markers in hippocampus; assay: Western blot of hippocampal proteins (Cdk5, p35/p25, NF-H, p-NF-H, NF-L, tau, p-tau) in treated HFD mice; assay type: in vivo; details: i.p.
Procedure: For tissue lysate preparation the mice were sacrificed following the Institution’s ethical guidelines. The hippocampus was isolated from the rest of the brain and treated in a tissue lysis solution with a protease and phosphatase inhibitor cocktail. Western blotting was performed to study the expression patterns of the protein of interest. Each well of a polyacrylamide gel was loaded with an identical amount of protein lysate (40–50 μg), which was then transferred to the nitrocellulose membrane. In 1X PBS with 0.1% (v/v) Tween 20, the main antibodies were diluted.

[2] = PAMPA blood-brain barrier permeability assay (brain polar lipid extract); assay type: in vitro ADME; details: 7 h incubation, 100-500 uM, > 10*10^-6 cm/s = high permeability, read-out: Paap (PAMPA-BBB permeability)
Procedure: PAMPA assay was performed using a PAMPA filter plate (MAIPNTR10) coated with brain polar lipid extract (141101P) to evaluate blood-brain barrier (BBB) permeability of the compounds. The assay was performed with the help of the protocol provided by Merck Millipore on their official website and articles as cited.[62]^,[63] 5% of brain polar solution was used to coat the donor plate (15ul per well) by drying the plate in a fume hood. The acceptor plate was filled with 300ul of buffer (5% DMSO in PBS). The donor plate coated with brain polar solution was placed above the acceptor plate and different concentrations of Cdk5 inhibitor (100-500uM) dissolved in 5% DMSO were added to it (150ul per well). After 7 h of incubation, the absorbance was measured at broad spectrum 250–500 nm. […] For permeability, the Papp of the drugs was calculated.Paap = C ∗ -ln (1-[drugacceptor]/[Drugequilibrium]); C=VD∗VA/(VD + VA) ∗ area ∗ timePaap < 10∗10^−6 cm/s - Low permeability; Paap > 10∗10^−6 cm/s - high permeability

Cdk1/CylY = assay: Specificity kinase assay, Cdk1 with cyclin Y; assay type: biochemical; details: inhibitor 0-100 nM; read-out: IC50, Cdk1 with activator cyclin Y
Source text: To assess the specificity of inhibitors BLINK11 and BLINK15 against CDK5, we investigated their effects on different Cdks, i.e., Cdk1, Cdk2, and Cdk9 that share structural homology with CDK5. […] However, these IC50 values were higher than those observed for CDK5/p35 and CDK5/p25. […] Overall, BLINK11 and BLINK15 can selectively target CDK5 at lower concentrations. […]
IC50 of all the kinases for both BLINK11 and BLINK15 inhibitors.

HFD-fed mice = assay: Grip strength test in HFD mice; assay type: in vivo; details: i.p., 40 mg/kg/day, 20 days
Procedure: A grip strength meter was used to measure the forelimb grip strength in mice.[54] The mouse was given a chance to grab the gauge with its forelimbs before having its tail gently pulled back. Digital transducers were used to record the muscular force. Five trials were conducted on each mouse.[23]

Cdk5/p35 = Cdk5/p35 (Homo sapiens, UniProt Q00535); assay: Cdk5 kinase assay (ADP-Glo) with Cdk5/p35 complex; assay type: biochemical; details: 10 μM ATP, histone substrate, inhibitor 0-100 nM
Procedure: The test tube Cdk5 Kinase assay was performed utilizing Cdk5/p35 and Cdk5/p25 complexes as kinases, following the modified procedure outlined in a previous study,[52] using a Promega ADP-GloTM Kinase Assay kit. The reaction was carried out with 10 μM ATP and 2 μg of histone as the substrate for Cdk5 complexes. To study the inhibition patterns, 19 Cdk5 inhibitors (BLINK1-19) identified through molecular docking were added to the Cdk5 kinase reaction in increasing concentrations ranging from 0 to 100 nM. The IC50 (half-maximal inhibitory concentration) values of all the inhibitors were calculated based on Log(inhibitor) vs. normalized response using GraphPad software.

Cdk5/p35, sequence (Q00535 whole entry, species assumed): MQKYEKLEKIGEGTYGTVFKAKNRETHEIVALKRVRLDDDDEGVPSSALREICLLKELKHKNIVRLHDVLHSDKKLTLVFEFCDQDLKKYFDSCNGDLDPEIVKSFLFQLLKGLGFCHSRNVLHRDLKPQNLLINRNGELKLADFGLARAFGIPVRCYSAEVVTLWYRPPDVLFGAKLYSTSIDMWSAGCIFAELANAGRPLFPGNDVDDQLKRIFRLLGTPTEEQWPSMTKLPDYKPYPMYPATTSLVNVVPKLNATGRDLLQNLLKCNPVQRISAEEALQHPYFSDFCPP
Cdk5/p35, sequence (Q15078 whole entry partner, species assumed): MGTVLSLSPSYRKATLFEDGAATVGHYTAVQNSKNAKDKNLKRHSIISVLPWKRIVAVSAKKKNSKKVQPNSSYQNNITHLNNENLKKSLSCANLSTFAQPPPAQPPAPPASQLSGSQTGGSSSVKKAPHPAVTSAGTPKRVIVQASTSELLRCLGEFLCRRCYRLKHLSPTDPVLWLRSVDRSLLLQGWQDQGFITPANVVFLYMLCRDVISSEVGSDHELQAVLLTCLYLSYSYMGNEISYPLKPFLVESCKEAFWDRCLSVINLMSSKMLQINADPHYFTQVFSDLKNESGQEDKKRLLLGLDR
Cdk1/CylY, sequence (P06493 whole entry): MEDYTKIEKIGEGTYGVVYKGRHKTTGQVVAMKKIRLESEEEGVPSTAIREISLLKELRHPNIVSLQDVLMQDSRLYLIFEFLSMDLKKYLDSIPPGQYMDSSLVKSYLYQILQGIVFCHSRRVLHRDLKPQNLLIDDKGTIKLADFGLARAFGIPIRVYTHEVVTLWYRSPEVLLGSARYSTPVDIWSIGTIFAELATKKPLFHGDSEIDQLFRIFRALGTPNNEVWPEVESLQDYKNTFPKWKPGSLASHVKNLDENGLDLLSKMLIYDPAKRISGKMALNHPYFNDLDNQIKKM
Cdk1/CylY, sequence (Q8ND76 2-341 partner): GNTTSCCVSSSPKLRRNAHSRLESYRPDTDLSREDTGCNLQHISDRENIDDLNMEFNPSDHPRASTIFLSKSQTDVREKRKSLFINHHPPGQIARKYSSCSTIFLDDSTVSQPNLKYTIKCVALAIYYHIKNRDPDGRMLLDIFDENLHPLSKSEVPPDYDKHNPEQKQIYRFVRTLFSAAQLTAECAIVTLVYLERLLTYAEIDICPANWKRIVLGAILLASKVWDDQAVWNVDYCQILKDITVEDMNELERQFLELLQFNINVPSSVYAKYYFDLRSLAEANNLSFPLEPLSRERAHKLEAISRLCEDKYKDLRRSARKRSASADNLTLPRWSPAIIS

| Papp at 7 h [2] [×10⁻⁶ cm/s] | IC50 (Cdk1/CylY) [nM] | IC50 (Cdk5/p35) [nM] | Compound | Hippocampal expression levels of CDK5 ([1]; 20 days) | neurofilament light chain (NF-L) levels in hippocampus ([1]; 20 days) | p25 generation in hippocampus ([1]; 20 days) | phospho-tau-396Ser levels in hippocampus ([1]; 20 days) | phospho-NF-H levels in hippocampus ([1]; particularly at a higher dose) | Grip strength (HFD-fed mice) |
| --- | --- | --- | --- | --- | --- | --- | --- | --- | --- |
| > 10 | 39.3 | 17.1 | O=C(COc1ccccc1C(=O)Nc1cccc(Cl)c1Cl)Nc1ccc(N2CCOCC2)c(Cl)c1 [BLINK11, 2-(2-((3-chloro-4-morpholinophenyl)amino)-2-oxoethoxy)-N-(2,3-dichlorophenyl)benzamide] | remain unaltered | restored | remains unchanged | significantly decreased | significantly reduced | rescue behavior |
| > 10 | 35.8 | 29.3 | COc1ccc(C(=O)C[C@@]2(O)C(=O)N(Cc3ccccc3)c3ccc(Br)cc32)cc1[N+](=O)[O-] [BLINK15] | remain unaltered |  | remains unchanged |  |  | rescue behavior |

From paper PMC11986975, “A Cdk5 inhibitor restores cognitive function and alleviates type 2 diabetes in mice” (iScience, 2025)
